According to publication PMC12490008 (Environmental Science & Technology, 2025):
*1 amine or outer side, *2 acyl side, *3 side chain or, on linkers, in order; H or OH if unused. Where a SMILES comes first, the peptide text is derived from it. Bridges are numbered along the chain shown (N, C = ends). [ ]: non-standard residue; d: D form. Adda = CO[C@@H](Cc1ccccc1)[C@@H](C)/C=C(C)/C=C/[C@H](N[*:1])[C@H](C)C(=O)[*:2]; dAsp(3S-Me) = C[C@H](C(=O)[*:3])[C@@H](N[*:1])C(=O)[*:2]; d(γGlu) = O=C(O)[C@@H](CCC(=O)[*:2])N[*:1]; hTyr = N[C@@H](CCc1ccc(O)cc1)C(=O)O; NMeA = CN[C@@H](C)C(=O)O; NMeDha = C=C(NC)C(=O)O; CO = O=C([*:1])[*:2]

Legend:
[1] = tested on: River Chriesbach biofilm suspension
[2] = tested on: River Chriesbach biofilm suspension (100%)
[3] = tested on: River Chriesbach river water
[4] = tested on: River Chriesbach biofilm suspension (100%, 10%, 1%)
[5] = tested on: River Chriesbach biofilm suspensions

| Compound | removal within 3 days [1] | 1.3d removal, 2% metabolite [2] [%] | 1.3d removal, 10% metabolite [2] [%] | 1.3d removal, 100% metabolite [2] [%] | Half-lives (h), 10% metabolite [2] [h] | Half-lives (h), 100% metabolite [2] [h] | 1d removal, River water [3] [%] | Half-lives (h), River water [3] | 1d removal, 1% biofilm [4] [%] | 1d removal, 10% biofilm [4] [%] | 1d removal, 100% biofilm [4] [%] | Half-lives (h), 10% biofilm [4] | Half-lives (h), 100% biofilm [4] [h] | biodegradability in biofilm suspensions (in words) [5] | Half-lives (h), 1% biofilm [4] | Half-lives (h), 2% metabolite [2] [h] | Lag-time (h), 2% metabolite [2] [h] | Lag-time (h), 10% metabolite [2] [h] | Lag-time (h), 100% metabolite [2] [h] | Lag-time (h), River water [3] | further results |
| --- | --- | --- | --- | --- | --- | --- | --- | --- | --- | --- | --- | --- | --- | --- | --- | --- | --- | --- | --- | --- | --- |
| CC[C@H](C)[C@@H]1NC(=O)[C@H](NC(=O)N[C@@H](CCCNC(=N)N)C(=O)O)CCCCNC(=O)[C@H](Cc2ccccc2)NC(=O)[C@H](C)N(C)C(=O)[C@H](CCc2ccc(O)cc2)NC1=O [Anabaenopeptin F] ({Arg-CO}-[dK]I[hTyr][NMeA]F; lactam 1-C) | more than 50% | 100 | 99 | 62 | 10.8 | 30.2 | -44 | n.d.(decay) | -13 | 28 | 83 | 106.3 h | 11.5 |  |  |  |  |  |  |  |  |
| CC[C@H](C)[C@@H]1NC(=O)[C@H](NC(=O)N[C@@H](Cc2c[nH]c3ccccc23)C(=O)O)CCCCNC(=O)[C@H](Cc2ccccc2)NC(=O)[C@H](C)N(C)C(=O)[C@H](CCc2ccc(O)cc2)NC1=O [Ferintoic acid B] ({Trp-CO}-[dK]I[hTyr][NMeA]F; lactam 1-C) |  |  |  |  |  |  |  |  |  |  |  |  |  | did not show detectable biotransformation |  |  |  |  |  |  |  |
| C=C1C(=O)N[C@H](C)C(=O)N[C@@H](CCc2ccc(O)cc2)C(=O)N[C@@H](C(=O)O)[C@H](C)C(=O)N[C@@H](CCCNC(=N)N)C(=O)N[C@@H](/C=C/C(C)=C/[C@H](C)[C@H](Cc2ccccc2)OC)[C@H](C)C(=O)N[C@@H](C(=O)O)CCC(=O)N1C [MC-HtyR] (R[Adda][d(γGlu)][NMeDha][dA][hTyr][dAsp(3S-Me)]-OH; lactam N-7) | 31% | 33 | 14 | 9 |  | 70.4 | -36 | n.d.(decay) | -13 | 19 | 17 | n.d.(decay) | 51.8 | biodegradable | n.d.(decay) |  |  |  |  |  |  |
| Aerucyclamide A | 20% | 64 | 43 | 21 | 34.9 | 56.9 | -23 | n.d.(decay) | -14 | -2 | -2 | n.d.(decay) | 66.9 |  | n.d.(decay) | 28.4 | 28.0 | 34.8 | 56.9 | n.d.(decay) | Lag-time (h), 1% biofilm [4]: n.d.(decay); Lag-time (h), 10% biofilm [4]: n.d.(decay); Lag-time (h), 100% biofilm [4]: 66.8 h |
| Anabaenopeptin 871 |  |  |  |  |  |  |  |  |  |  |  |  |  | did not show detectable biotransformation |  |  |  |  |  |  |  |
| Anabaenopeptin A | 32-35% | 100 | 98 | 46 | 13.4 | 34.9 | -28 | n.d.(decay) | -9 | 25 | 86 | 103.7 h | 11.5 |  | 177.1 h | 7.2 | 6.7 | 12.3 | 34.8 | n.d.(decay) | expected river water half-lives [3]: 8.6 to 10.6 days; Lag-time (h), 1% biofilm [4]: 98.1 h; Lag-time (h), 10% biofilm [4]: 102.8 h; Lag-time (h), 100% biofilm [4]: 10.2 h |
| Anabaenopeptin B |  | 100 | 99 | 62 | 11.2 | 30.0 | -23 | n.d.(decay) | -11 | 23 | 85 | 111.9 h | 10.4 |  |  | 6.2 | 5.3 | 10.3 | 29.9 | n.d.(decay) | detectability at day 5 [1]: not detectable anymore; lag time (shoulder-log fitting) [1]: 2.3 days; initial removal at 1.3 days at decreased initial metabolite concentrations [2]: ~100%; Lag-time (h), 10% biofilm [4]: 111.7 h; Lag-time (h), 100% biofilm [4]: 8.5 h |
